Experimental data from patent publication US20220119354A1, “DIAMINO-SUBSTITUTED PYRIDINES AND PYRIMIDINES AS HERBICIDES” (FMC Corporation, priority 2019, published 2022).

Assays:
Assay type in all cases: in vivo
[1] = system: ragweed (common ragweed, Ambrosia elatior); assay: Test A postemergence, ragweed; conditions: 0 to 100 scale
Outline: (§1)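 Steps: plant seeds in loam/sand; spray soil (pre) or seedlings at 1–2 leaves, 2–10 cm (post) with compound in solvent plus surfactant; keep in greenhouse ~10 d; score injury visually against untreated controls, 0–100.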

[2] = system: barnyardgrass (Echinochloa crus-galli); assay: Test A postemergence, barnyardgrass; conditions: 0 to 100 scale
Outline: as §1

[3] = system: barnyardgrass (Echinochloa crus-galli); assay: Test B flooded paddy test, barnyardgrass; conditions: Flood, 250 g ai/ha, applied to paddy water, 2-leaf stage, visual evaluation after 13 to 15 d
Outline: (§2)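 Each response is a visual 0–100 rating made against untreated controls, where 0 is no effect and 100 is complete control; a dash marks no result. Compound was dosed into 3 cm paddy water over 2-leaf plants, assessed after 13 to 15 d.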

[4] = system: foxtail, giant (Setaria faberii); assay: Test A postemergence, giant foxtail; conditions: 0 to 100 scale
Outline: as §1

[5] = system: ducksalad (Heteranthera limosa); assay: Test B flooded paddy test, ducksalad; conditions: Flood, 250 g ai/ha, applied to paddy water, 2-leaf stage, visual evaluation after 13 to 15 d
Outline: as §2

[6] = system: blackgrass (Alopecurus myosuroides); assay: Test A postemergence, blackgrass; conditions: 0 to 100 scale
Outline: as §1

[7] = system: pigweed (Amaranthus retroflexus); assay: Test A preemergence, pigweed; conditions: 0 to 100 scale; for Pigweed plant response rating: 0 is no effect, 100 is complete control
Outline: as §1

[8] = system: ragweed (common ragweed, Ambrosia elatior); assay: Test A preemergence, ragweed; conditions: 0 to 100 scale; for Ragweed plant response rating: 0 is no effect, 100 is complete control
Outline: as §1

[9] = system: foxtail, giant (Setaria faberii); assay: Test A preemergence, giant foxtail; conditions: 0 to 100 scale; for Foxtail, Giant plant response rating: 0 is no effect, 100 is complete control
Outline: as §1

[10] = system: barnyardgrass (Echinochloa crus-galli); assay: Test A preemergence, barnyardgrass; conditions: 0 to 100 scale; for Barnyardgrass plant response rating: 0 is no effect, 100 is complete control
Outline: as §1

[11] = system: ryegrass, Italian (Lolium multiflorum); assay: Test A preemergence, Italian ryegrass; conditions: 0 to 100 scale; for Ryegrass, Italian plant response rating: 0 is no effect, 100 is complete control
Outline: as §1

[12] = system: pigweed (Amaranthus retroflexus); assay: Test A postemergence, pigweed; conditions: 0 to 100 scale
Outline: as §1

[13] = system: sedge, umbrella (small-flower umbrella sedge, Cyperus difformis); assay: Test B flooded paddy test, umbrella sedge; conditions: Flood, 250 g ai/ha, applied to paddy water, 2-leaf stage, visual evaluation after 13 to 15 d
Outline: as §2

[14] = system: rice (Oryza sativa); assay: Test B flooded paddy test, rice; conditions: Flood, 250 g ai/ha, applied to paddy water, 2-leaf stage, visual evaluation after 13 to 15 d
Outline: as §2

[15] = system: ryegrass, Italian (Lolium multiflorum); assay: Test A postemergence, Italian ryegrass; conditions: 0 to 100 scale
Outline: as §1

[16] = system: corn (Zea mays); assay: Test A postemergence, corn; conditions: 0 to 100 scale
Outline: as §1

[17] = system: kochia (Kochia scoparia); assay: Test A preemergence, kochia; conditions: 0 to 100 scale; for Kochia plant response rating: 0 is no effect, 100 is complete control
Outline: as §1

[18] = system: wheat (Triticum aestivum); assay: Test A postemergence, wheat; conditions: 0 to 100 scale
Outline: as §1

[19] = system: kochia (Kochia scoparia); assay: Test A postemergence, kochia; conditions: 0 to 100 scale
Outline: as §1

[20] = system: galium (catchweed bedstraw, Galium aparine); assay: Test A postemergence, galium; conditions: 0 to 100 scale
Outline: as §1

[21] = 125 g ai/ha, 0 no effect, 100 complete control
[22] = 500 g ai/ha, 0 no effect, 100 complete control

## C[C@@H](Nc1ncc(C(F)(F)F)c(N)n1)c1coc2cc(Cl)ccc12 [Compound 55]
[1]; [21]
  Plant response rating, Ragweed: 50
[1]; [22]
  Plant response rating, Ragweed: 80
[2]; [21]
  Plant response rating, Barnyardgrass: 30
[2]; [22]
  Plant response rating, Barnyardgrass: 70
[3]
  Plant response rating, Barnyardgrass (0 to 100 scale, 0 is no effect, 100 is complete control): 30
[4]; [21]
  Plant response rating, Foxtail, Giant: 20
[4]; [22]
  Plant response rating, Foxtail, Giant: 90
[5]
  Plant response rating, Ducksalad (0 to 100 scale, 0 is no effect, 100 is complete control): 70
[6]; [21]
  Plant response rating, Blackgrass: 0
[6]; [22]
  Plant response rating, Blackgrass: 20
[7]; 125 g ai/ha
  Pigweed plant response rating: 80
[7]; 500 g ai/ha
  Pigweed plant response rating: 100
[8]; 125 g ai/ha
  Ragweed plant response rating: 100
[8]; 500 g ai/ha
  Ragweed plant response rating: 100
[9]; 125 g ai/ha
  Foxtail, Giant plant response rating: 50
[9]; 500 g ai/ha
  Foxtail, Giant plant response rating: 90
[10]; 125 g ai/ha
  Barnyardgrass plant response rating: 80
[10]; 500 g ai/ha
  Barnyardgrass plant response rating: 80
[11]; 125 g ai/ha
  Ryegrass, Italian plant response rating: 20
[11]; 500 g ai/ha
  Ryegrass, Italian plant response rating: 70
[12]; [21]
  Plant response rating, Pigweed: 100
[12]; [22]
  Plant response rating, Pigweed: 100
[13]
  Plant response rating, Sedge, Umbrella (0 to 100 scale, 0 is no effect, 100 is complete control): 98
[14]
  Plant response rating, Rice (0 to 100 scale, 0 is no effect, 100 is complete control): 0
[15]; [21]
  Plant response rating, Ryegrass, Italian: 30
[15]; [22]
  Plant response rating, Ryegrass, Italian: 30
[16]; [21]
  Plant response rating, Corn: 10
[16]; [22]
  Plant response rating, Corn: 0
[17]; 125 g ai/ha
  Kochia plant response rating: 40
[17]; 500 g ai/ha
  Kochia plant response rating: 90
[18]; [21]
  Plant response rating, Wheat: 0
[18]; [22]
  Plant response rating, Wheat: 0
[19]; [21]
  Plant response rating, Kochia: 70
[19]; [22]
  Plant response rating, Kochia: 90
[20]; [21]
  Plant response rating, Galium: 70
[20]; [22]
  Plant response rating, Galium: 90

## C[C@@H](Nc1ncc(C(F)(F)F)c(N)n1)c1cc2cc(C(F)(F)F)ccc2o1 [Compound 7]
[1]; 125 g ai/ha
  Plant response rating, Ragweed: 0
[1]; 500 g ai/ha
  Plant response rating, Ragweed: 0
[2]; 125 g ai/ha
  Plant response rating, Barnyardgrass: 0
[2]; 500 g ai/ha
  Plant response rating, Barnyardgrass: 0
[3]
  Plant response rating, Barnyardgrass (0 to 100 scale, 0 is no effect, 100 is complete control): 0
[4]; 125 g ai/ha
  Plant response rating, Foxtail, Giant: 0
[4]; 500 g ai/ha
  Plant response rating, Foxtail, Giant: 0
[5]
  Plant response rating, Ducksalad (0 to 100 scale, 0 is no effect, 100 is complete control): 0
[6]; 125 g ai/ha
  Plant response rating, Blackgrass: 0
[6]; 500 g ai/ha
  Plant response rating, Blackgrass: 0
[7]; 125 g ai/ha
  Plant response rating, Pigweed: 0
[7]; 500 g ai/ha
  Plant response rating, Pigweed: 30
[8]; 125 g ai/ha
  Plant response rating, Ragweed: 0
[8]; 500 g ai/ha
  Plant response rating, Ragweed: 0
[9]; 125 g ai/ha
  Plant response rating, Foxtail, Giant: 0
[9]; 500 g ai/ha
  Plant response rating, Foxtail, Giant: 0
[10]; 125 g ai/ha
  Plant response rating, Barnyardgrass: 0
[10]; 500 g ai/ha
  Plant response rating, Barnyardgrass: 0
[11]; 125 g ai/ha
  Plant response rating, Ryegrass, Italian: 0
[11]; 500 g ai/ha
  Plant response rating, Ryegrass, Italian: 0
[12]; 125 g ai/ha
  Plant response rating, Pigweed: 30
[12]; 500 g ai/ha
  Plant response rating, Pigweed: 90
[13]
  Plant response rating, Sedge, Umbrella (0 to 100 scale, 0 is no effect, 100 is complete control): 0
[14]
  Plant response rating, Rice (0 to 100 scale, 0 is no effect, 100 is complete control): 0
[15]; 125 g ai/ha
  Plant response rating, Ryegrass, Italian: 0
[15]; 500 g ai/ha
  Plant response rating, Ryegrass, Italian: 0
[16]; 125 g ai/ha
  Plant response rating, Corn: 0
[16]; 500 g ai/ha
  Plant response rating, Corn: 0
[17]; 125 g ai/ha
  Plant response rating, Kochia: 0
[17]; 500 g ai/ha
  Plant response rating, Kochia: 0
[18]; 125 g ai/ha
  Plant response rating, Wheat: 0
[18]; 500 g ai/ha
  Plant response rating, Wheat: 0
[19]; 125 g ai/ha
  Plant response rating, Kochia: 0
[19]; 500 g ai/ha
  Plant response rating, Kochia: 0
[20]; 125 g ai/ha
  Plant response rating, Galium: 0
[20]; 500 g ai/ha
  Plant response rating, Galium: 20
